EC50 data for 27 molecules are collected here from patent publication US20250074913A1, “PYRAZOLE DERIVATIVES AS STING AGONISTS” (Hoffmann-La Roche Inc., priority 2022, published 2025).

pEC50: −log10 of the molar value.

For the experiment, the system named is interferon regulatory factor (IRF) pathway in THP1-Dual™ cells. Briefly: THP1-Dual reporter gene assay (Agonist_THP1_EC50). It is filed as cell-based. Conditions: Homo sapiens, 20-24 hrs compound treatment, Lucia luciferase (IRF) readout. An excerpt: This is the cellular reporter assay to evaluate compounds' agonism to interferon regulatory factor (IRF) pathway in THP1-Dual™ cells (InvivoGen, cat number thpd-nfis). THP1-Dual™ cells were derived from the human THP-1 monocyte cell line by stable integration lucia luciferase gene, a new secreted luciferase reporter gene, under the control of an ISG54 (interferon-stimulated gene) minimal promoter in conjunction with five interferon (IFN)-stimulated response elements. As a result, THP1-Dual™ cells allow the study of the IRF pathway, by assessing the activity of Lucia luciferase. Lucia luciferase protein is readily measurable in the cell culture supernatant when using QUANTI-Luc™ (InvivoGen, cat: rep-qlcg-500).
After 20-24 hrs compound treatment in THP1-Dual cells, the compounds' agonism to IRF pathway and cell toxicity were tested by measuring luminescence and OD 450 on an Envision plate reader.
On the day of experiment, 30 μL of test medium (RPMI 1640, 2 mM L-glutamine, 25 mM HEPES, […] heat-inactivated fetal bovine serum) was dispensed in a white 384-well plate (Grenier, cat: 781098) containing the serially diluted compounds (final 1% DMSO) transferred by the Echo550 machine. Then 30 μL of cell suspension (˜33,000 cells, 1.1×10^6 cells/mL) per well was added immediately by thermo multidrop combi dispenser for incubation 20-24 h at 37° C., […]. At the end of the incubation, 10 μL of cellular supernatant was transferred to proxiplate 384-plus plate for IRF detection, and then 10 μL of QUANTI-Luc™ Gold solution was added to the plate that proceeded with the measurement immediately. To detect cell viability, 30 μL of the CCK-8 working solution (Dojindo Molecular Technologies, cat: CK04-20) was added to the cell plate, which was Incubated for 2 hrs in the incubator to measure the absorbance at 450 nm using Envision.
For orientation: In a reporter assay the amount or activity of a reporter protein is the signal.
A word on the pEC50: it is the EC50 on a negative log10 scale, so that one unit is a factor of ten. Low values mean a large EC50, high ones a small EC50. The molecule `CCn1nc(C)c(O)c1-c1n[nH]c(-c2nc(C(N)=O)n3cc(C)ncc23)n1` [Example 1, 1-[3-(2-ethyl-4-hydroxy-5-methyl-pyrazol-3-yl)-1H-1,2,4-triazol-5-yl]-6-methyl-imidazo[1,5-a]pyrazine-3-carboxamide] had a negative-log EC50 (pEC50) of 6.69.
As for `CCn1nc(C)c(O)c1-c1n[nH]c(-c2cc(C(N)=O)n3cc(C)ncc23)n1` [Example 3, 8-[3-(2-ethyl-4-hydroxy-5-methyl-pyrazol-3-yl)-1H-1,2,4-triazol-5-yl]-3-methyl-pyrrolo[1,2-a]pyrazine-6-carboxamide], the pEC50 was 6.22.
Turning to `CCn1nc(C)c(O)c1-c1nc(-c2nc(C(N)=O)n3cc(C)ncc23)co1` [Example 9, 1-[2-(2-ethyl-4-hydroxy-5-methyl-pyrazol-3-yl)oxazol-4-yl]-6-methyl-imidazo[1,5-a]pyrazine-3-carboxamide], the pEC50 was 6.08.
With `CCn1nc(C)c(O)c1-c1nc(-c2nc(C(N)=O)cc3c2cnn3C)c(C(F)F)o1` [Example 10, 4-[5-(difluoromethyl)-2-(2-ethyl-4-hydroxy-5-methyl-pyrazol-3-yl)oxazol-4-yl]-1-methyl-pyrazolo[4,3-c]pyridine-6-carboxamide] the figure was 6.38; with `CCn1nc(C)c(O)c1-c1n[nH]c(-c2nc(C(N)=O)n3cc(Cl)ncc23)n1` [Example 18, 6-chloro-1-[3-(2-ethyl-4-hydroxy-5-methyl-pyrazol-3-yl)-1H-1,2,4-triazol-5-yl]imidazo[1,5-a]pyrazine-3-carboxamide], 6.26.
To `CCn1nc(C)c(O)c1-c1n[nH]c(-c2nc(C(N)=O)n3cc(C)ccc23)n1` [Example 19, 1-[3-(2-ethyl-4-hydroxy-5-methyl-pyrazol-3-yl)-1H-1,2,4-triazol-5-yl]-6-methyl-imidazo[1,5-a]pyridine-3-carboxamide] belongs 6.39.
To `CCn1nc(C)c(O)c1-c1n[nH]c(-c2cc(C(N)=O)c3cc(C)ncn23)n1` [Example 20, 7-[3-(2-ethyl-4-hydroxy-5-methyl-pyrazol-3-yl)-1H-1,2,4-triazol-5-yl]-3-methyl-pyrrolo[1,2-c]pyrimidine-5-carboxamide] belongs 6.55; to `CCn1nc(C)c(O)c1-c1nc(-n2nc(C(N)=O)c3cc(C)ncc32)co1` [Example 21, 1-[2-(2-ethyl-4-hydroxy-5-methyl-pyrazol-3-yl)oxazol-4-yl]-5-methyl-pyrazolo[3,4-c]pyridine-3-carboxamide], 6.85; to `CCn1nc(C)c(O)c1-c1n[nH]c(-n2nc(C(N)=O)c3cc(C)ncc32)n1` [Example 22, 1-[3-(2-ethyl-4-hydroxy-5-methyl-pyrazol-3-yl)-1H-1,2,4-triazol-5-yl]-5-methyl-pyrazolo[3,4-c]pyridine-3-carboxamide], 7.09.
`Cc1nn(CCn2ccnc2)c(-c2n[nH]c(-c3nc(C(N)=O)cc4c3cnn4C)n2)c1O` [Example 23, 4-[3-[4-hydroxy-2-(2-imidazol-1-ylethyl)-5-methyl-pyrazol-3-yl]-1H-1,2,4-triazol-5-yl]-1-methyl-pyrazolo[4,3-c]pyridine-6-carboxamide] had a pEC50 of 6.56.
As for `Cc1nn(CCCC#N)c(-c2n[nH]c(-c3nc(C(N)=O)cc4c3cnn4C)n2)c1O` [Example 24, 4-[3-[2-(3-cyanopropyl)-4-hydroxy-5-methyl-pyrazol-3-yl]-1H-1,2,4-triazol-5-yl]-1-methyl-pyrazolo[4,3-c]pyridine-6-carboxamide], the negative-log EC50 (pEC50) is 6.90.
To `Cc1nn(CCC#N)c(-c2n[nH]c(-c3nc(C(N)=O)cc4c3cnn4C)n2)c1O` [Example 25, 4-[3-[2-(2-cyanoethyl)-4-hydroxy-5-methyl-pyrazol-3-yl]-1H-1,2,4-triazol-5-yl]-1-methyl-pyrazolo[4,3-c]pyridine-6-carboxamide] belongs 7.30; to `CCn1nc(C)c(O)c1-c1n[nH]c(-c2nc(C(N)=O)n3cc(C(F)F)ncc23)n1` [Example 26, 6-(difluoromethyl)-1-[3-(2-ethyl-4-hydroxy-5-methyl-pyrazol-3-yl)-1H-1,2,4-triazol-5-yl]imidazo[1,5-a]pyrazine-3-carboxamide], 6.47.
To `CCn1nc(C)c(O)c1-c1noc(-c2cc(C(N)=O)c3cc(C)ncn23)n1` [Example 27, 7-[3-(2-ethyl-4-hydroxy-5-methyl-pyrazol-3-yl)-1,2,4-oxadiazol-5-yl]-3-methyl-pyrrolo[1,2-c]pyrimidine-5-carboxamide] belongs 6.53; to `CCn1nc(C)c(O)c1-c1nc(-c2c(F)c(C(N)=O)n3cc(C)ncc23)co1` [Example 28, 8-[2-(2-ethyl-4-hydroxy-5-methyl-pyrazol-3-yl)oxazol-4-yl]-7-fluoro-3-methyl-pyrrolo[1,2-a]pyrazine-6-carboxamide], 6.87; to `CCn1nc(C)c(O)c1-c1nc(-n2cc(C(N)=O)c3cc(C)ncc32)co1` [Example 29, 1-[2-(2-ethyl-4-hydroxy-5-methyl-pyrazol-3-yl)oxazol-4-yl]-5-methyl-pyrrolo[2,3-c]pyridine-3-carboxamide], 6.21.
Take `Cc1cn2c(C(N)=O)c(F)c(-c3nc(-c4c(O)c(C)nn4CCC#N)n[nH]3)c2cn1` [Example 30, 8-[3-[2-(2-cyanoethyl)-4-hydroxy-5-methyl-pyrazol-3-yl]-1H-1,2,4-triazol-5-yl]-7-fluoro-3-methyl-pyrrolo[1,2-a]pyrazine-6-carboxamide]: the negative-log EC50 (pEC50) is 6.49.
The molecule `Cc1cc2c(C(N)=O)nn(-c3nc(-c4c(O)c(C)nn4CC4CC4)n[nH]3)c2cn1` [Example 32, 1-[3-[2-(cyclopropylmethyl)-4-hydroxy-5-methyl-pyrazol-3-yl]-1H-1,2,4-triazol-5-yl]-5-methyl-pyrazolo[3,4-c]pyridine-3-carboxamide] had a pEC50 of 7.44.
With `Cc1cc2c(C(N)=O)nn(-c3nc(-c4c(O)c(C)nn4C4CC4)n[nH]3)c2cn1` [Example 33, 1-[3-(2-cyclopropyl-4-hydroxy-5-methyl-pyrazol-3-yl)-1H-1,2,4-triazol-5-yl]-5-methyl-pyrazolo[3,4-c]pyridine-3-carboxamide] the figure was 6.87; with `Cc1nn(CCn2nccn2)c(-c2n[nH]c(-c3nc(C(N)=O)cc4c3cnn4C)n2)c1O` [Example 35, 4-[3-[4-hydroxy-5-methyl-2-[2-(triazol-2-yl)ethyl]pyrazol-3-yl]-1H-1,2,4-triazol-5-yl]-1-methyl-pyrazolo[4,3-c]pyridine-6-carboxamide], 7.10.
With `Cc1nn(CCn2ccnn2)c(-c2n[nH]c(-c3nc(C(N)=O)cc4c3cnn4C)n2)c1O` [Example 36, 4-[3-[4-hydroxy-5-methyl-2-[2-(triazol-1-yl)ethyl]pyrazol-3-yl]-1H-1,2,4-triazol-5-yl]-1-methyl-pyrazolo[4,3-c]pyridine-6-carboxamide] the figure was 6.62; with `Cc1nn(CCC(F)F)c(-c2n[nH]c(-c3nc(C(N)=O)cc4c3cnn4C)n2)c1O` [Example 37, 4-[3-[2-(3,3-difluoropropyl)-4-hydroxy-5-methyl-pyrazol-3-yl]-1H-1,2,4-triazol-5-yl]-1-methyl-pyrazolo[4,3-c]pyridine-6-carboxamide], 7.85; with `Cc1nn(CCn2cncn2)c(-c2n[nH]c(-c3nc(C(N)=O)cc4c3cnn4C)n2)c1O` [Example 39, 4-[3-[4-hydroxy-5-methyl-2-[2-(1,2,4-triazol-1-yl)ethyl]pyrazol-3-yl]-1H-1,2,4-triazol-5-yl]-1-methyl-pyrazolo[4,3-c]pyridine-6-carboxamide], 6.65.
With `Cc1cc2c(C(N)=O)nn(-c3nc(-c4c(O)c(C)nn4CCCF)n[nH]3)c2cn1` [Example 41, 1-[3-[2-(3-fluoropropyl)-4-hydroxy-5-methyl-pyrazol-3-yl]-1H-1,2,4-triazol-5-yl]-5-methyl-pyrazolo[3,4-c]pyridine-3-carboxamide] the figure was 7.32; with `COCCn1nc(C)c(O)c1-c1n[nH]c(-n2nc(C(N)=O)c3cc(C)ncc32)n1` [Example 42, 1-[3-[4-hydroxy-2-(2-methoxyethyl)-5-methyl-pyrazol-3-yl]-1H-1,2,4-triazol-5-yl]-5-methyl-pyrazolo[3,4-c]pyridine-3-carboxamide], 7.35.
For `CCCCn1nc(C)c(O)c1-c1n[nH]c(-n2nc(C(N)=O)c3cc(C)ncc32)n1` [Example 43, 1-[3-(2-butyl-4-hydroxy-5-methyl-pyrazol-3-yl)-1H-1,2,4-triazol-5-yl]-5-methyl-pyrazolo[3,4-c]pyridine-3-carboxamide], the pEC50 was 7.82.
On to `COCCCn1nc(C)c(O)c1-c1n[nH]c(-n2nc(C(N)=O)c3cc(C)ncc32)n1` [Example 44, 1-[3-[4-hydroxy-2-(3-methoxypropyl)-5-methyl-pyrazol-3-yl]-1H-1,2,4-triazol-5-yl]-5-methyl-pyrazolo[3,4-c]pyridine-3-carboxamide], for which the negative-log EC50 (pEC50) is 7.34.
